The record followed here is ChEMBL document CHEMBL1152346, “Hirseins A and B, daphnane diterpenoids from Thymelaea hirsuta that inhibit melanogenesis in B16 melanoma cells” (J Nat Prod, 2009).

Data set [1] concerns B16. As to the kind of experiment: Inhibition of melanin production in mouse B16 cells at 0.1 uM after 48 hrs by spectrophotometry relative to control. The class given is functional. Particulars: B16, 48 h.
Data set [2] in a line: Cytotoxicity against mouse B16 cells assessed as viability at 0.1 uM after 48 hrs by viacount reagent staining technique relative to control. The class given is cell-based. The following applies: read-out: Activity.
Data set [3] deals with B16. Nature of the data set: Inhibition of melanin production in mouse B16 cells at 100 uM after 48 hrs by spectrophotometry relative to control. The class given is functional. The following applies: B16, 48 h.

A word on the inhibition: it is the drop in the measured response relative to a control, in per cent. A higher inhibition goes with strong suppression. Consider `C=C(C)[C@@]12OC3(CCCCCCCCC)O[C@@H]1[C@@H]1[C@@H]4O[C@]4(CO)[C@@H](O)[C@]4(O)C(=O)C(C)=C[C@H]4[C@@]1(O3)[C@H](C)[C@H]2OC(=O)/C=C/c1ccc(O)cc1` [HIRSEIN B], for which testing at 0.1 µM with B16 [1] gave an inhibition of 26%. The viability at 48 h, 0.1 µM in data set [2] was 97.5%.

In the data set on B16 [3], `OC[C@H]1O[C@@H](Oc2ccc(O)cc2)[C@H](O)[C@@H](O)[C@@H]1O` [ARBUTIN] showed an inhibition at 100 µM of 33%. In turn, `C=C(C)[C@@]12OC3(/C=C/CCCCC)O[C@@H]1[C@@H]1[C@@H]4O[C@]4(CO)[C@@H](O)[C@]4(O)C(=O)C(C)=C[C@H]4[C@@]1(O3)[C@H](C)[C@H]2OC(=O)/C=C/c1ccccc1` [HIRSEIN A] came in with an inhibition at 0.1 µM with B16 [1] of 37%. Also, the viability at 48 h, 0.1 µM in data set [2] was 99.3%.
